Measurements taken from patent US9079880B2, “Rho kinase inhibitors” (Boehringer Ingelheim International GmbH, priority 2010, dated 2015).

Assays:
ROCKII (1-543) [1] = target: T1, ROCKII (1-543) (Homo sapiens (Human), UniProt O75116); experiment: Luciferin-Luciferase Assay (PKLight ATP detection); format: biochemical; settings: 750 nM ATP, 500 nM peptide, 7.5 nM kinase
Protocol: 1. Luciferin-Luciferase Assay
The activity of ROCKII (1-543) kinase was measured utilizing Cambrex PKLight ATP Detection Reagent, a homogeneous assay technology using luciferin-luciferase to quantify residual ATP. The assay was performed in 384-well low-volume, white, non-binding surface microtiter plates (Corning). The assay buffer was 25 mM HEPES, pH 7.5, 10 mM MgCl2, 50 mM KCl, 0.2% BSA, 0.01% CHAPS, 100 μM Na3VO4 and 0.5 mM DTT. Test compounds, dissolved in neat DMSO at 500 μg/mL, were serially diluted for dose response for a final starting concentration of 3 μg/mL in 1% DMSO of assay buffer. ROCKII (1-543) (62,408Da) was diluted in assay buffer to a final concentration of 7.5 nM in a total volume of 15 μL. Positive controls were reaction mixtures containing no test compound; negative controls (blanks) were reaction mixtures containing no kinase. After 15 minutes of pre-incubation of the test compounds with the kinase, a mixture of ATP and peptide substrate ([…]) in assay buffer was added to each well for a final concentration of 750 nM ATP and 500 nM peptide, respectively. After 90 minutes of incubation of the kinase reaction at 28° C. temperature, 10 μL of PKLight ATP Detection Reagent (warmed to room temperature previously) was added to each well. The assay plate was incubated at room temperature for additional 15 minutes and then read on an Analyst in luminescence mode. Dose-response experiments for each of the test compounds were conducted in quadruplet. IC50 values of test compounds represent 50% response of the positive control from the dose-response curve.
Target sequence in this assay (O75116 1-543): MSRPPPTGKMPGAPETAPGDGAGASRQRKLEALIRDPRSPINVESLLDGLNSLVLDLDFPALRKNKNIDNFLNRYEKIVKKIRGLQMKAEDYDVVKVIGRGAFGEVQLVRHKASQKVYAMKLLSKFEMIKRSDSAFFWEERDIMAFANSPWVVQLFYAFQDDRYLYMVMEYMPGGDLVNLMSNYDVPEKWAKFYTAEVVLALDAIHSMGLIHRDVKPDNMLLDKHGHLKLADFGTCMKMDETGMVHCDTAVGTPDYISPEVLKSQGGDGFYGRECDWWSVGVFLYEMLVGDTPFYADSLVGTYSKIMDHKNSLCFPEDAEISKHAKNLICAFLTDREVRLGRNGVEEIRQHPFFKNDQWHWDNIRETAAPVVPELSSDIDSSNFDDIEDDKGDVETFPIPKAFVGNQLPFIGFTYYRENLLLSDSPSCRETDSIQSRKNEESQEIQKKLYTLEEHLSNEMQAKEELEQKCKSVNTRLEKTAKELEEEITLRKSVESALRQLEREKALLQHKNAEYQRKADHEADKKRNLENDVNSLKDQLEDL

ROCKII (1-543) [2] = target: T1, ROCKII (1-543); experiment: IMAP Assay (fluorescence polarization, FAM S6 peptide); format: biochemical; settings: 100 μM ATP, 200 nM FAM S6 peptide, 1 nM kinase; read-out: Assay 2 IC50
Protocol: This assay is performed using FAM S6 substrate peptide (Catalogue #R7184) and IMAP FP Screening Express Kit detection reagents from Molecular Devices (Sunnyvale, Calif.) in IMAP kinase reaction buffer (Tris-HCl, pH 7.2, 10 mM MgCl2, 0.05% NaN3, 0.1% phosphate-free BSA) containing 1 mM DTT. Test compounds dissolved in neat DMSO at 0.3 mg/mL are serially diluted 1 to 3 for concentration response in 100% DMSO. The DMSO serial dilutions are further diluted 33.33-fold in kinase reaction buffer, and 10 μL of this buffer dilution is transferred to Corning black 96-well half area NBS plates for a final top concentration of 3 μg/mL in 1% DMSO. 10 μL aliquot of 3 nM ROCKII (1-543) diluted in kinase reaction buffer is added to each assay well for a final concentration of 1 nM kinase. 10 μL of a mixture of 600 nM FAM S6 peptide and 300 μM ATP diluted in kinase reaction buffer is added to each well for a final concentration of 200 nM peptide and 100 μM ATP. The kinase reaction mixture is incubated for 60 minutes at room temperature. Positive controls are reaction mixtures containing no test compound and negative controls (blanks) are reaction mixtures containing no kinase. The kinase reaction is stopped by addition of 60 μL IMAP progressive binding reagent (Catalog #R7284) diluted 400-fold in 1× Binding buffer A. After 30 min of incubation at room temperature, the plates are read for fluorescence polarization on Analyst Plate Reader using Ex 485 nm, Em 530 nm, and FL 505 dichroic mirror. The mP signals are converted to percent of control (POC) values using the formula: POC=100*(Signal−BCTRL)÷(PCTRL−BCTRL)
Where Signal is the test well signal, BCTRL is the average of background (negative control) well signals on the plate and PCTRL is the average of positive control well signals on the plate. For the concentration-responsive compounds, POC as a function of test compound concentration is fitted to a 4-parameter logistic equation of the form: Y=A+(B−A)/[1+(x/C)D] Where A, B, C, and D are fitted parameters (parameter B is fixed at zero POC), and x and y are the independent and dependent variables, respectively. The IC50 is determined as the inflection point parameter, C.
Target sequence in this assay (O75116 1-543, species assumed): as the sequence (O75116 1-543) above

Dahl salt-sensitive rats = settings: rat, in vivo; cited from earlier work
[3] = system: neointimal formation in rats; settings: cited from earlier work
[4] = system: spontaneously hypertensive rat, renal hypertensive rat and deoxycortisone acetate salt hypertensive rat models; settings: cited from earlier work
rat stroke model = settings: in vivo; cited from earlier work
[5] = system: IL-1 beta-induced coronary stenosis; settings: long term treatment; cited from earlier work

Row | SMILES | IC50 (ROCKII (1-543) [1]) [nM] | IC50 (ROCKII (1-543) [2]) [nM] | also measured
1 | NC(=O)c1ccc2nc(C(=O)N3CCC[C@@H]3c3cccc(C(=O)Nc4nc5c(s4)C[C@@H](N4CCOCC4)CC5)c3)cn2c1 [Compound 124] | 2.3 | 6.7 | –
2 | O=C(Nc1nc2c(s1)C[C@@H](N1CCOCC1)CC2)c1cccc([C@H]2CCCN2C(=O)c2ccc3[nH]c(=O)ccc3c2)c1 [Compound 126] | 2.7 | 7 | –
3 | Cc1nc(-c2ccncc2)sc1C(=O)N1CCC[C@@H]1c1cccc(C(=O)Nc2nc3c(s2)C[C@@H](N2CCOCC2)CC3)c1 [Compound 128] | 3.6 | 29 | –
4 | O=C(Nc1nc2c(s1)C[C@@H](N1CCOCC1)CC2)c1cccc([C@H]2CCCN2C(=O)c2ccc3cc(O)ccc3c2)c1 [Compound 130] | 2.5 | 6.3 | –
5 | O=C(Nc1nc2c(s1)C[C@@H](N1CCOCC1)CC2)c1cccc([C@H]2CCCN2C(=O)c2ccc(-c3ccncc3)cc2)c1 [Compound 132] | 2.6 | 17 | –
6 | Nc1nonc1-n1nnc(C(=O)N2CCC[C@@H]2c2cccc(C(=O)Nc3nc4c(s3)C[C@@H](N3CCOCC3)CC4)c2)c1-c1ccccc1 [Compound 134] | 2.7 | 30 | –
7 | O=C(Nc1nc2c(s1)C[C@@H](N1CCOCC1)CC2)c1cccc([C@H]2CCCN2C(=O)c2csc(-c3cccnc3)n2)c1 [Compound 136] | 2.6 | 6.9 | –
8 | O=C(Nc1nc2c(s1)C[C@@H](N1CCOCC1)CC2)c1cccc([C@H]2CCCN2C(=O)c2cccc(-c3cn[nH]c3)c2)c1 [Compound 140] | 2.5 | 4.9 | –
9 | CN1CCc2nc(NC(=O)c3cccc([C@H]4CCCN4C(=O)c4cn5ccc(C#N)cc5n4)c3)sc2C1 [Compound 148, 3-[(R)-1-(7-Cyano-imidazo[1,2-a]pyridine-2-carbonyl)-pyrrolidin-2-yl]-N-(5-methyl-4,5,6,7-tetrahydro-thiazolo[5,4-c]pyridin-2-yl)-benzamide] | 2.9 | 12 | –
10 | N#Cc1ccc(NC(=O)COc2cccc(C(=O)Nc3nc4c(s3)CC(N3CCN(C5CC5)CC3)CC4)c2)cc1 (stereo not shown) [Compound 152] | 6.1 | 24 | –
11 | CN1CCN(C2CCc3nc(NC(=O)c4cccc(OCC(=O)Nc5ccc(C#N)cc5)c4)sc3C2)CC1 (stereo not shown) [Compound 154] | 6.5 | 33 | –
12 | COCCN(C)C1CCc2nc(NC(=O)c3cccc(OCC(=O)Nc4ccc(C#N)cc4)c3)sc2C1 (stereo not shown) [Compound 156] | 7.2 | 31 | –
13 | C[C@@H](N)[C@H]1CC[C@H](C(=O)Nc2ccncc2)CC1 [Compound Y-27632, Y-27632] | – | – | ventricular hypertrophy and function (Dahl salt-sensitive rats): improve ventricular hypertrophy and function; neointimal formation [3]: inhibited neointimal formation; blood pressure in control rats ([4]; control rats): only a minor effect on blood pressure; blood pressure in three rat models of hypertension ([4]; hypertensive rats): significantly decrease blood pressure
14 | O=S(=O)(c1cccc2cnccc12)N1CCCNCC1 [fasudil] | – | – | infarct size and neurologic deficit (rat stroke model): reduce both the infarct size and neurologic deficit; coronary constrictive remodeling [5]: promote a regression of coronary constrictive remodeling; coronary stenosis [5]: progressively reduce coronary stenosis
